Data published in ChEMBL document CHEMBL6078637, “Cyclic Diguanylate G-Quadruplex Inducer-Quorum Sensing Inhibitor Hybrids as Bifunctional Anti-biofilm and Anti-virulence Agents Against Pseudomonas aeruginosa” (J Med Chem, 2024).
Calls of active or inactive are those of the source. The rule behind the calls is not given here.

Legend:
[1] = Inhibition of quorum sensing system in Pseudomonas aeruginosa PAO1 harboring mini-ctx-lasB-lacZ at 10 uM measured after 16 hrs by ONPG test relative to control
Pseudomonas aeruginosa [2] = experiment: Antibiofilm activity against Pseudomonas aeruginosa PAO1 harboring wspF mutant assessed as inhibition rate at 1.25 uM incubated for 24 hrs by absorbance based assay relative to control; type: functional
Pseudomonas aeruginosa [3] = experiment: Antibiofilm activity against Pseudomonas aeruginosa PAO1 harboring wspF mutant assessed as inhibition rate at 10 uM incubated for 24 hrs by absorbance based assay relative to control; type: functional
Pseudomonas aeruginosa [4] = experiment: Antibiofilm activity against Pseudomonas aeruginosa PAO1 harboring wspF mutant incubated for 24 hrs by absorbance based assay; type: functional, organism-based
Pseudomonas aeruginosa [5] = experiment: Antibacterial activity against Pseudomonas aeruginosa PAO1 incubated for 24 hrs by absorbance based assay; type: functional
Pseudomonas aeruginosa [6] = experiment: Antivirulence activity against Pseudomonas aeruginosa PAO1 assessed as reduction in elastase level incubated for 24 hrs by elastin-Congo red staining based analysis; type: functional, organism-based; settings: dose <= 10.0 µM
Pseudomonas aeruginosa [7] = experiment: Antivirulence activity against Pseudomonas aeruginosa PAO1 assessed as reduction in rhamnolipid level incubated for 24 hrs by orcinol based analysis; type: functional, organism-based; settings: dose <= 10.0 µM
Pseudomonas aeruginosa [8] = experiment: Antivirulence activity against Pseudomonas aeruginosa PAO1 assessed as reduction in pyocyanin level incubated for 24 hrs by absorbance based assay; type: functional, organism-based; settings: dose <= 10.0 µM
Pseudomonas aeruginosa [9] = experiment: Antivirulence activity against Pseudomonas aeruginosa PAO1 assessed as reduction in elastase level at 10 uM incubated for 24 hrs by elastin-Congo red staining based analysis relative to control; type: functional; design: scale not given: the % may be the effect or the level left
Pseudomonas aeruginosa [10] = experiment: Antivirulence activity against Pseudomonas aeruginosa PAO1 assessed as reduction in pyocyanin level at 10 uM incubated for 24 hrs by absorbance based assay relative to control; type: functional; design: scale not given: the % may be the effect or the level left
Pseudomonas aeruginosa [11] = experiment: Antivirulence activity against Pseudomonas aeruginosa PAO1 assessed as reduction in rhamnolipid level at 10 uM incubated for 24 hrs by orcinol based analysis; type: functional, organism-based
Pseudomonas aeruginosa [12] = experiment: Antivirulence activity against Pseudomonas aeruginosa PAO1 assessed as reduction in hemolysin level at 10 uM preincubated for 24 hrs followed by addition of erythrocytes measured after 30 mins by absorbance based analysis relative to control; type: functional; design: scale not given: the % may be the effect or the level left
Pseudomonas aeruginosa [13] = experiment: Inhibition of beta-galactosidase in Pseudomonas aeruginosa PAO1 harboring mini-ctx-lacZ at 10 uM incubated for 6 hrs by ONPG test relative to control
Pseudomonas aeruginosa [14] = experiment: Inhibition of beta-galactosidase in Pseudomonas aeruginosa PAO1 harboring mini-ctx-lasB-lacZ at 10 uM incubated for 6 hrs by ONPG test relative to control
Pseudomonas aeruginosa [15] = experiment: Inhibition of beta-galactosidase in Pseudomonas aeruginosa PAO1 harboring mini-ctx-pqsA-lacZ at 10 uM incubated for 6 hrs by ONPG test relative to control
Pseudomonas aeruginosa [16] = experiment: Inhibition of beta-galactosidase in Pseudomonas aeruginosa PAO1 harboring mini-ctx-lasB-lacZ incubated for 6 hrs by ONPG test; settings: dose <= 10.0 µM
Pseudomonas aeruginosa [17] = experiment: Inhibition of beta-galactosidase in Pseudomonas aeruginosa PAO1 harboring mini-ctx-pqsA-lacZ incubated for 6 hrs by ONPG test; settings: dose <= 10.0 µM
Pseudomonas aeruginosa [18] = experiment: Inhibition of beta-galactosidase in Pseudomonas aeruginosa PAO1 harboring mini-ctx-rhlA-lacZ at 10 uM incubated for 6 hrs by ONPG test relative to control
Pseudomonas aeruginosa [19] = experiment: Inhibition of swarming motility of Pseudomonas aeruginosa PAO1 incubated overnight; type: functional, organism-based; settings: dose <= 10.0 µM
Pseudomonas aeruginosa [20] = experiment: Inhibition of swimming motility of Pseudomonas aeruginosa PAO1 incubated overnight; type: functional, organism-based; settings: dose <= 10.0 µM
Pseudomonas aeruginosa [21] = experiment: Inhibition of twitching motility of Pseudomonas aeruginosa PAO1 incubated overnight by crystal voilet staining based analysis; type: functional, organism-based; settings: dose <= 10.0 µM
Pseudomonas aeruginosa [22] = experiment: Inhibition of swarming motility of Pseudomonas aeruginosa PAO1 at 10 uM incubated overnight; type: functional, organism-based
Pseudomonas aeruginosa [23] = experiment: Inhibition of swimming motility of Pseudomonas aeruginosa PAO1 at 10 uM incubated overnight relative to control; type: functional
Pseudomonas aeruginosa [24] = experiment: Inhibition of twitching motility of Pseudomonas aeruginosa PAO1 at 10 uM incubated overnight by crystal voilet staining based analysis; type: functional, organism-based
Pseudomonas aeruginosa [25] = experiment: Downregulation of lasB mRNA level in Pseudomonas aeruginosa PAO1 at 10 uM by RT-qPCR analysis; type: functional, organism-based
Pseudomonas aeruginosa [26] = experiment: Downregulation of rhlA mRNA level in Pseudomonas aeruginosa PAO1 at 10 uM by RT-qPCR analysis; type: functional, organism-based
Pseudomonas aeruginosa [27] = experiment: Downregulation of rhlR mRNA level in Pseudomonas aeruginosa PAO1 at 10 uM by RT-qPCR analysis; type: functional, organism-based
Pseudomonas aeruginosa [28] = experiment: Downregulation of lasR mRNA level in Pseudomonas aeruginosa PAO1 at 10 uM by RT-qPCR analysis; type: functional, organism-based
Pseudomonas aeruginosa [29] = experiment: Downregulation of pqsR mRNA level in Pseudomonas aeruginosa PAO1 at 10 uM by RT-qPCR analysis; type: functional, organism-based
Pseudomonas aeruginosa [30] = experiment: Downregulation of pelA mRNA level in Pseudomonas aeruginosa PAO1 at 10 uM by RT-qPCR analysis; type: functional, organism-based
DNA [31] = experiment: Binding affinity to pBR322 DNA (unknown origin) assessed as DNA embedding toxicity at 50 uM preincubated for 10 mins followed by Topo I addition measured after 1 hr by TO dye based PAGE analysis; type: nucleic-acid assay; settings: time 70.0 min
DNA [32] = experiment: Binding affinity to pBR322 DNA (unknown origin) assessed as DNA migration at 50 uM preincubated for 10 mins followed by Topo I addition measured after 1 hr by TO dye based PAGE analysis; type: nucleic-acid assay; settings: time 70.0 min
[33] = Hemolytic activity in rabbit erythrocytes assessed as damage in cell membrane integrity at 100 uM incubated for 4 hrs by absorbance based assay; type: toxicity, Oryctolagus cuniculus; settings: erythrocyte
Vero = experiment: Cytotoxicity against African green monkey Vero cells at 12.5 uM incubated for 24 hrs by MTT assay; type: toxicity, cell-based; settings: chlorocebus sabaeus
Pseudomonas aeruginosa [34] = experiment: Synergistic antibacterial activity against Pseudomonas aeruginosa PAO1 assessed as bacterial growth inhibition at 20 uM incubated for 24 hrs in presence of tetracycline by CFU counting method; type: functional, organism-based
[35] = Toxicity in Caenorhabditis elegans assessed as nematode survival upto 100 uM incubated for 96 hrs
[36] = Toxicity in Caenorhabditis elegans infected with Pseudomonas aeruginosa PAO1 assessed as nematode survival at 10 uM incubated for 48 hrs
[37] = Toxicity in Caenorhabditis elegans infected with Pseudomonas aeruginosa PAO1 assessed as nematode survival at 10 uM incubated for 48 hrs in presence of tetracycline
[38] = Toxicity in Caenorhabditis elegans infected with Pseudomonas aeruginosa PAO1 assessed as reduction in nematode mortality rate at 10 uM incubated for 48 hrs in presence of TOB; design: scale not given: the % may be the effect or the level left
[39] = Toxicity in Caenorhabditis elegans infected with hyper-biofilm phenotype Pseudomonas aeruginosa PAO1 harboring wspF mutant assessed as nematode death at 10 uM incubated for 48 hrs in presence of TOB
[40] = Toxicity in Caenorhabditis elegans infected with hyper-biofilm phenotype Pseudomonas aeruginosa PAO1 harboring wspF mutant assessed as nematode death at 10 uM incubated for 48 hrs in presence of tetracycline
Pseudomonas aeruginosa [41] = experiment: Synergistic inhibition of bacterial virulence of Pseudomonas aeruginosa PAO1 infected in Caenorhabditis elegans upto 10 uM incubated for 36 hrs in presence of tetracycline; type: functional, organism-based
Pseudomonas aeruginosa [42] = experiment: Synergistic inhibition of bacterial virulence of Pseudomonas aeruginosa PAO1 infected in Caenorhabditis elegans upto 10 uM incubated for 36 hrs in presence of TOB; type: functional, organism-based
Pseudomonas aeruginosa [43] = experiment: Synergistic inhibition of bacterial virulence of hyper-biofilm phenotype Pseudomonas aeruginosa PAO1 harboring wspF mutant upto 10 uM incubated for 36 hrs in presence of tetracycline; type: functional, organism-based
Pseudomonas aeruginosa [44] = experiment: Synergistic inhibition of bacterial virulence of hyper-biofilm phenotype Pseudomonas aeruginosa PAO1 harboring wspF mutant upto 10 uM incubated for 36 hrs in presence of TOB; type: functional, organism-based
[45] = Toxicity in Caenorhabditis elegans infected with Pseudomonas aeruginosa PAO1 assessed as nematode survival at 2 ug incubated for 48 hrs; settings: in vivo, at 2 µg

## C[n+]1c(/C=C/c2c[nH]c3ccccc23)ccc2ccccc21.[I-]
[1]
  inhibition: 44.5%
Pseudomonas aeruginosa [2]
  inhibition at 1.25 µM: ~21%
Pseudomonas aeruginosa [3]
  inhibition at 10 µM: ~40%
Pseudomonas aeruginosa [4]
  inhibition: Dose-dependent-effect
Pseudomonas aeruginosa [4]; PAO1, 24 h
  IC50: 14.9 µM
Pseudomonas aeruginosa [5]
  MIC: > 128 µM
Pseudomonas aeruginosa [6]
  Activity: Dose-dependent-effect
Pseudomonas aeruginosa [7]
  Activity: Dose-dependent-effect
Pseudomonas aeruginosa [8]
  Activity: Dose-dependent-effect
Pseudomonas aeruginosa [9]
  Activity: 59.02%
Pseudomonas aeruginosa [10]
  Activity: ~40%
Pseudomonas aeruginosa [11]
  Activity: Active; Exhibited Relatively Modest Activity
Pseudomonas aeruginosa [12]
  Activity: 62.38%
Pseudomonas aeruginosa [13]
  inhibition: 20.4%
Pseudomonas aeruginosa [14]
  inhibition: 30%
Pseudomonas aeruginosa [15]
  inhibition: 30%
Pseudomonas aeruginosa [16]
  inhibition: Dose-dependent-effect
Pseudomonas aeruginosa [17]
  inhibition: Dose-dependent-effect
Pseudomonas aeruginosa [18]
  inhibition: 10%
Pseudomonas aeruginosa [19]
  inhibition: Dose-dependent-effect
Pseudomonas aeruginosa [20]
  inhibition: Dose-dependent-effect
Pseudomonas aeruginosa [21]
  inhibition: Dose-dependent-effect
Pseudomonas aeruginosa [22]
  inhibition: Active; Inhibitory Effect Was Comparable To Qs Deficient Pao1 Double Mutant Lasi/Rhli
Pseudomonas aeruginosa [23]
  inhibition at 10 µM: 29.2%
Pseudomonas aeruginosa [24]
  inhibition: Active; Exhibited Only A Modest Impact
Pseudomonas aeruginosa [25]
  Activity: Active
Pseudomonas aeruginosa [26]
  Activity: Active
Pseudomonas aeruginosa [27]
  Activity: Active
Pseudomonas aeruginosa [28]
  Activity: Active
Pseudomonas aeruginosa [29]
  Activity: Active
Pseudomonas aeruginosa [30]
  Activity: Active
DNA [31]
  Activity: Not toxic
DNA [32]
  Activity: Not toxic
[33]
  Activity: Non-toxic
Vero
  Activity: Non-toxic
Pseudomonas aeruginosa [34]
  Activity: Active
[35]
  Activity: Non-toxic
[36]
  Activity: Toxic
[37]
  Survival: 95%
[38]
  Activity: ~ 50%
[39]
  Activity: Non-toxic
[40]
  Activity: Non-toxic
Pseudomonas aeruginosa [41]
  Activity: Active
Pseudomonas aeruginosa [42]
  Activity: Active
Pseudomonas aeruginosa [43]
  Activity: Active
Pseudomonas aeruginosa [44]
  Activity: Active

## CN(C)[C@@H]1C(O)=C(C(N)=O)C(=O)[C@@]2(O)C(O)=C3C(=O)c4c(O)cccc4[C@@](C)(O)[C@H]3C[C@@H]12 [TETRACYCLINE]
Pseudomonas aeruginosa [5]
  MIC: > 128 µM
[45]
  Survival: ~ 10%
